Experimental data reported in paper PMC9036659, “Boron-containing capsaicinoids” (RSC Advances, 2021).

Assays:
[1] = system: MRSA; design: method as in doi:10.1139/cjc-2018-0193; conditions: data collected in previous study; Inactive = inhibition above 400 μM; cited from earlier work
[2] = system: vancomycin-resistant Enterococcus; design: method as in doi:10.1139/cjc-2018-0193; conditions: data collected in previous study, Inactive = inhibition above 400 μM, cited from earlier work
[3] = system: Pseudomonas aeruginosa (ATCC 14210); test: Antimicrobial assay, P. aeruginosa (OD600); type: cell-based
Protocol: (§1) The microorganisms (methicillin-resistant S. aureus MRSA 310, vancomycin-resistant E. faecium VRE 379, S. warneri (ATCC 17917), P. vulgaris (ATCC 12454), P. aeruginosa (ATCC 14210), and C. albicans (ATCC 14035)) were grown overnight on agar media. The following day the cultures were transferred into 0.9% saline water into a sterile glass tube. Using the McFarland reader, the turbidity was determined and further diluted into their respective media. The pure compounds were tested at seven different concentrations ranging from 2 to 128 μg mL^−1 in triplicate. Samples were plated into 96 well plates (10 μL in 20% DMSO) and then diluted pathogen (90 μL) was pipetted into the pre-prepared sample plates yielding 5 × 10^5 cfu mL^−1 with a final volume of 100 μL. Antibiotics that are active against specific pathogens were used as positive controls. The plates were incubated into a 37 °C incubator for 22 h. Growth of S. warneri. P. vulgaris, P. aeruginosa and C. albicans were measured by reading optical density (OD600), or in the case of slow growing microorganisms (MRSA and VRE), PrestoBlue was used to assess metabolic activity by measuring fluorescence (535–560)/(590–615) (excitation/emission) using a Thermo Scientific Varioskan Flash plate reader at time zero and then again after incubation of the plates for 22 h at 37 °C. After subtracting the time zero OD600 from the final reading, the percentages of microorganism survival relative to vehicle control wells were calculated. […]
(§2) Antimicrobial Assay Data Growth of S. warneri. P. vulgaris, P. aeruginosa and C. albicans were measured by reading optical density (OD600), or in the case of slow growing microorganisms (MRSA and VRE), PrestoBlue was used to assess metabolic activity by measuring fluorescence (535-560)⁄(590-615) (excitation/emission) using a Thermo Scientific Varioskan Flash plate reader at time zero and then again after incubation of the plates for 22 h at 37 °C. After subtracting the time zero OD600 from the final reading, the percentages of microorganism survival relative to vehicle control wells were calculated. […]

[4] = system: vancomycin-resistant Enterococcus faecium VRE 379; test: Antimicrobial assay, VRE (PrestoBlue fluorescence); type: cell-based
Protocol: as §1, §2

[5] = system: human breast adenocarcinoma cells (MCF7 ATCC HTB-22); test: Cytotoxicity assay (Alamar blue), MCF7; type: cell-based; conditions: for IC50: Homo sapiens, MCF7, read-out: IC50 MCF7 (cancer cell line)
Protocol: (§3) The cells (human foreskin BJ fibroblast cells (ATCC CRL-2522), green monkey kidney cells Vero (ATCC CCL-81), human breast adenocarcinoma cells (ATCC HTB-26 MDA-MB 231), human breast adenocarcinoma cells (MCF7 ATCC HTB-22), and human colorectal carcinoma cells (HCT116 ATCC CCL-247)) were grown to 80% confluency, the cells were counted, diluted, and plated into treated 96-well cell culture plates. The BJ fibroblast and Vero cells were plated at a cell density of 10 000 cells per well and the HTB26, HCT116 and MCF7 cells were plated at cell density of 5000 cells per well in 90 μL of respective growth medium (without the addition of antibiotics) and incubated for 24 h to allow cells to adhere to the plates before treatment. Pure compounds were tested in triplicate in serial dilutions of seven concentrations ranging from 2 to 128 μg mL^−1 per well (final well volume of 100 μL, 1% DMSO per well). Each of the cell lines were incubated at 37 °C in a humidified atmosphere of 5% CO2; the BJ fibroblast and Vero cells for 24 h and the HTB-26, HCT116 and MCF7 cells for 72 h. Each plate contained four uninoculated positive controls, four untreated negative controls, and one column containing a concentration range for doxorubicin. Alamar blue was added, 24 h after the treatment, and fluorescence was monitored using a Cytation Gen 5 plate reader using 560 nm Ex/590 Em both at time zero and 4 h after Alamar blue addition. The inferred percentage of cell viability relative to vehicle control wells were calculated after subtracting the time zero emission 590 nm measurement from the final reading and the IC50 was determined. […]
(§4) Cytotoxicity Assay Data Alamar blue was added, 24 h after the treatment, and fluorescence was monitored using a Cytation Gen 5 plate reader using 560 nm Ex/590 Em both at time zero and 4 h after Alamar blue addition. The inferred percentage of cell viability relative to vehicle control wells were calculated after subtracting the time zero emission 590 nm measurement from the final reading and the IC50 was determined.

[6] = system: green monkey kidney cells Vero (ATCC CCL-81); test: Cytotoxicity assay (Alamar blue), Vero; type: cell-based; conditions: for IC50: Chlorocebus sabaeus, Vero, read-out: IC50 Vero (normal cell line)
Protocol: as §3, §4

[7] = system: human foreskin BJ fibroblast cells (ATCC CRL-2522); test: Cytotoxicity assay (Alamar blue), BJ; type: cell-based; conditions: for IC50: Homo sapiens, Fibroblast, read-out: IC50 BJ (normal cell line)
Protocol: as §3, §4

[8] = system: Candida albicans (ATCC 14035); test: Antimicrobial assay, C. albicans (OD600); type: cell-based
Protocol: as §1, §2

[9] = system: Staphylococcus warneri (ATCC 17917); test: Antimicrobial assay, S. warneri (OD600); type: cell-based
Protocol: as §1, §2

[10] = system: Proteus vulgaris (ATCC 12454); test: Antimicrobial assay, P. vulgaris (OD600); type: cell-based
Protocol: as §1, §2

[11] = system: human colorectal carcinoma cells (HCT116 ATCC CCL-247); test: Cytotoxicity assay (Alamar blue), HCT116; type: cell-based; conditions: for IC50: Homo sapiens, HCT-116, 72 h incubation, average ± SD, Inactive = inhibition above 300 μM, read-out: IC50 HCT (cancer cell line)
Protocol: as §3, §4

[12] = system: human breast adenocarcinoma cells (ATCC HTB-26 MDA-MB 231); test: Cytotoxicity assay (Alamar blue), HTB-26; type: cell-based; conditions: for IC50: Homo sapiens, HTB26, 72 h incubation, average ± SD, Inactive = inhibition above 300 μM, read-out: IC50 HTB (cancer cell line)
Protocol: as §3, §4

[13] = system: methicillin-resistant Staphylococcus aureus MRSA 310; test: Antimicrobial assay, MRSA (PrestoBlue fluorescence); type: cell-based
Protocol: as §1, §2

[14] = 72 h incubation, average ± SD, Inactive = inhibition above 300 μM
[15] = 24 h incubation, average ± SD, Inactive = inhibition above 300 μM

SMILES	melting point	antimicrobial activity against P. aeruginosa (in words) [3]	antimicrobial activity against VRE (in words) [4]	cytotoxic activity against MCF7 (in words) [5]	antimicrobial activity against C. albicans (in words) [8]	antimicrobial activity against S. warneri (in words) [9]	antimicrobial activity against P. vulgaris (in words) [10]	cytotoxic activity against HCT116 (in words) [11]	IC50 [11]	cytotoxic activity against HTB-26 MDA-MB 231 (in words) [12]	IC50 [12]	antimicrobial activity against MRSA (in words) [13]	cytotoxic activity against Vero (in words) [6]	cytotoxic activity against BJ (in words) [7]	other results
COc1cc(CNC(=O)CCCCCCCCCCB2OC(C)(C)C(C)(C)O2)ccc1OCc1ccccc1 [Compound 8b]	–	–	–	–	–	–	–	–	–	–	–	–	–	–	IC50 [1]: 245 µM; MRSA MIC90 [1]: Inactive; VRE MIC90 [2]: Inactive; IC50 ([2]; read-out: VRE IC50): 277 µM
CCCCCC(=O)N(Cc1ccc(OC)c(OC)c1)c1ccccc1 [Compound 21, N-(3,4-dimethoxyphenylmethyl)-N-(phenyl)-hexanamide]	31.5 to 33.8 °C	–	–	–	–	–	–	–	–	–	–	–	–	–	–
CCCCCC(=O)N(Cc1ccc(OC)c(OC)c1)c1ccc(B2OC(C)(C)C(C)(C)O2)cc1 [Compound 23, N-(3,4-dimethoxyphenylmethyl)-N-[4-(4,4,5,5-tetramethyl-1,3,2-dioxaborolan-2-yl)phenyl]-hexanamide]	51.5 to 53.5 °C	inactive	inactive	selective but low to moderate activity	inactive	inactive	inactive	selective but low to moderate activity	118 ± 4.9 µM	selective but low to moderate activity	85.8 ± 7.1 µM	inactive	–	–	IC50 MCF7 (cancer cell line) [5, 14]: Inactive; IC50 Vero (normal cell line) [6, 15]: Inactive; IC50 BJ (normal cell line) [7, 15]: Inactive
CCCCCCCCCC(=O)N(Cc1ccc(OC)c(OC)c1)c1ccc(B2OC(C)(C)C(C)(C)O2)cc1 [Compound 24, N-(3,4-dimethoxyphenylmethyl)-N-[4-(4,4,5,5-tetramethyl-1,3,2-dioxaborolan-2-yl)phenyl]-decanamide]	58.1 to 59.8 °C	inactive	inactive	unselective cytotoxic effects	inactive	inactive	inactive	unselective cytotoxic effects	33.8 ± 2.1 µM	unselective cytotoxic effects	25.2 ± 1.3 µM	inactive	unselective cytotoxic effects	unselective cytotoxic effects	IC50 [5, 14]: 24.1 ± 3.8 µM; IC50 [6, 15]: 26.9 ± 4.4 µM; IC50 [7, 15]: 36.1 ± 0.8 µM
CCCCc1ccc(N(Cc2ccc(OC)c(OC)c2)C(=O)CCCCCCCCB2OC(C)(C)C(C)(C)O2)cc1 [Compound 33, N-(4-butylphenyl)-N-(3,4-dimethoxybenzyl)-9-(4,4,5,5-tetramethyl-1,3,2-dioxaborolan-2-yl)nonamide]	–	inactive	inactive	unselective cytotoxic effects	inactive	inactive	inactive	unselective cytotoxic effects	20.3 ± 0.7 µM	unselective cytotoxic effects	21.2 ± 3.5 µM	inactive	unselective cytotoxic effects	unselective cytotoxic effects	IC50 [5, 14]: 3.4 ± 2.2 µM; IC50 [6, 15]: 20.9 ± 1.2 µM; IC50 [7, 15]: 24.2 ± 0.2 µM
CCCCCCCCCCCCCCc1ccc(N(Cc2ccc(OC)c(OC)c2)C(=O)CCCCCCCCB2OC(C)(C)C(C)(C)O2)cc1 [Compound 34, N-(3,4-dimethoxybenzyl)-N-(4-tetradecylphenyl)-9-(4,4,5,5-tetramethyl-1,3,2-dioxaborolan-2-yl)nonamide]	–	inactive	inactive	inactive	inactive	inactive	inactive	inactive	–	inactive	–	inactive	inactive	inactive	–
OB(O)c1ccccc1 [Phenylboronic acid]	–	–	–	–	–	–	–	–	–	–	–	–	–	–	IC50 [1]: 170 µM; MRSA MIC90 [1]: Inactive; VRE IC50 [2]: Inactive; VRE MIC90 [2]: Inactive
